In patent US8674096B2, “Substituted imidazo[1,5-a]quinoxalin-4-ones as phosphodiesterase 9 inhibitors” (priority 2009, dated 2014) one finds melting point data, which are given here for 69 compounds.

As a reminder, the melting point is the temperature, or range, at which the solid turns liquid.

Consider `Cc1cc2c(cc1C(=O)N1Cc3ccc(F)cc3C1)[nH]c(=O)c1cnc(C3CCCC3)n12`, for which the melting point is 228 to 231 °C.

The compound `Cc1cc2c(cc1C(=O)N1Cc3cccc(C)c3C1)[nH]c(=O)c1cnc(C3CCOCC3)n12.Cl` returned a melting point of 206 to 208 °C.

Regarding `Cc1cc2c(cc1C(=O)N1CCc3c(Cl)cccc3C1)[nH]c(=O)c1nnc(-c3sccc3C)n12`, the melting point was 310 to 312 °C.

For the compound `CN1CCN(C(=O)c2ccc3c(c2)[nH]c(=O)c2nnc(-c4ccc(O)cc4)n23)CC1c1ccccc1` (stereo not drawn), the melting point is 286 °C (dec.).

`Cc1cc2c(cc1C(=O)N1CCc3cc(Cl)ccc31)[nH]c(=O)c1nnc(C(=O)C3CC3)n12.Cl` came in with a melting point of 288 to 290 °C.

On to `CCCc1nnc2c(=O)[nH]c3cc(C(=O)N4CCN(c5ccccc5Cl)CC4)c(C)cc3n12`, for which the melting point was in the range of 186 to 188 °C.

Turning to `Cc1cc2c(cc1C(=O)N1CCc3cccc(C(=O)O)c3C1)[nH]c(=O)c1cnc(C3CCOCC3)n12.Cl`, the melting point lay in the range of 212 to 213 °C.

In the case of `Cc1cc2c(cc1C(=O)N1Cc3cccc(N4CCOCC4)c3C1)[nH]c(=O)c1cnc(C3CCOCC3)n12.Cl`, the melting point is 225 °C (dec.).

Take `Cc1cc2c(cc1C(=O)N1CCc3c(Cl)cc(Cl)cc3C1)[nH]c(=O)c1cnc(C3CCOCC3)n12.Cl`: the melting point is 188 to 190 °C (dec.).

As to `Cc1cc2c(cc1C(=O)N1CCc3cc(Br)ccc31)[nH]c(=O)c1cnc(C3CCOCC3)n12.Cl`, the melting point was 219 to 220 °C (dec.).

`O=C(c1ccc2c(c1)[nH]c(=O)c1nnc(C3CCOCC3)n12)N1CCOC(c2ccccc2)C1` (stereo not drawn) registered a melting point of 275 to 276 °C.

`Cc1cc2c(cc1C(=O)N1CCc3cc(Cl)ccc31)[nH]c(=O)c1cnc(C3CCCOC3)n12.Cl` (stereo not drawn) gave a melting point of 206 to 208 °C.

`Cc1cc2c(cc1C(=O)N1Cc3cccc(C)c3C1)[nH]c(=O)c1cnc(C3CCCOC3)n12.Cl` (stereo not drawn): the melting point was 283 °C (dec.).

The compound `Cc1cc2c(cc1C(=O)N1CCc3cc(F)ccc31)[nH]c(=O)c1cnc(C3CCOC3)n12.Cl` (stereo not drawn) returned a melting point of 186 to 188 °C.

On to `Cc1cc2c(cc1C(=O)N1CCc3c(Cl)cccc3C1)[nH]c(=O)c1cnc(C3CCOCC3)n12`, for which the melting point was 267 °C (dec.).

Compound `Cc1cc2c(cc1C(=O)N1CCc3cc(Cl)ccc31)[nH]c(=O)c1nnc(C3CCCC3)n12.Cl` had a melting point of 218 to 220 °C.

`Cc1cc2c(cc1C(=O)N1CCc3onc(-c4ccc(Cl)cc4)c3C1)[nH]c(=O)c1nnc(C3CCOC3)n12.Cl` (stereo not drawn) had a melting point of 219 to 221 °C.

For the compound `Cc1cc2c(cc1C(=O)N1CCc3cccnc31)[nH]c(=O)c1nnc(C3CCCC3)n12`, the melting point was 207 to 209 °C.

As for `Cc1cc2c(cc1C(=O)N1Cc3ccccc3C1)[nH]c(=O)c1nnc(C3CCOC(C)(C)C3)n12` (stereo not drawn), the melting point is 287 °C (dec.).

On to `Cc1cc2c(cc1C(=O)N1CCc3cc(C4CC4)cnc31)[nH]c(=O)c1nnc(C3CCCC3)n12`, for which the melting point was 208 to 209 °C.

Compound `Cc1cc2c(cc1C(=O)N1CCc3cc(Cl)ccc31)[nH]c(=O)c1nnc(C3CCOCC3)n12` displayed a melting point of 335 to 336 °C.

As for `Cc1cc2c(cc1C(=O)N1CCc3cc(F)c(Cl)cc31)[nH]c(=O)c1nnc(C3CCOCC3)n12.Cl`, the melting point is 316 to 319 °C.

With `Cc1cc2c(cc1C(=O)N1CCc3cccnc31)[nH]c(=O)c1nnc(C3CCOCC3)n12`, the melting point is 370 °C (dec.).

Regarding `Cl.O=C(c1cc2[nH]c(=O)c3cnc(C4CCOCC4)n3c2cc1C1CC1)N1CCc2cc(F)ccc21`, the melting point was 318 to 321 °C (dec.).

Take `Cc1cc2c(cc1C(=O)N1Cc3ccccc3C1)[nH]c(=O)c1nnc(C3CCC3)n12.Cl`: the melting point was 236 °C (dec.).

Take `COc1cc2c(cc1C(=O)N1CCc3cc(F)ccc31)[nH]c(=O)c1cnc(C3CCOCC3)n12.Cl`: the melting point is 321 to 324 °C (dec.).

With `COc1cc2c(cc1C(=O)N1Cc3ccccc3C1)[nH]c(=O)c1cnc(C3CCOCC3)n12.Cl`, the melting point is 199 to 201 °C (dec.).

`Cc1cc2c(cc1C(=O)N1Cc3c(F)ccc(F)c3C1)[nH]c(=O)c1cnc(C3CCCOC3)n12` (stereo not drawn) displayed a melting point of 223 to 225 °C.

Take `Cc1cc2c(cc1C(=O)N1Cc3ccccc3C1)[nH]c(=O)c1nnc(C3CCC(F)(F)CC3)n12`: the melting point was 322 °C (dec.).

In the case of `Cc1cc2c(cc1C(=O)N1CCc3cccnc31)[nH]c(=O)c1nnc(C3CCC(F)(F)CC3)n12.Cl`, the melting point was 310 °C (dec.).

Take `Cc1cc2c(cc1C(=O)N1Cc3ccccc3C1)[nH]c(=O)c1c(C)nc(C3CCOCC3)n12.Cl`: the melting point was 335 °C (dec.).

Consider `Cc1cc2c(cc1C(=O)N1CCc3cc(Cl)ccc31)[nH]c(=O)c1c(C)nc(C3CCOCC3)n12.Cl`, for which the melting point was 198 °C (dec.).

For the compound `COc1cc2c(cc1C(=O)N1CCc3cc(C4CC4)cnc31)[nH]c(=O)c1cnc(C3CCOCC3)n12`, the melting point was 297 °C (dec.).

For `O=C(c1cc2[nH]c(=O)c3cnc(C4CCOCC4)n3c2cc1C1CC1)N1CCc2cc(C3CC3)cnc21`, the melting point is 310 °C (dec.).

Turning to `Cc1cc2c(cc1C(=O)N1CCc3cc(F)c(F)cc31)[nH]c(=O)c1cnc(C3CCOCC3)n12.Cl`, the melting point lay in the range of 287 to 288 °C.

The compound `Cl.O=C(c1cc2[nH]c(=O)c3cnc(C4CCOCC4)n3c2cc1C1CC1)N1Cc2cccc(F)c2C1` gave a melting point of 205 to 207 °C.

In the case of `COc1cc2c(cc1C(=O)N1Cc3cccc(F)c3C1)[nH]c(=O)c1cnc(C3CCOCC3)n12.Cl`, the melting point was in the range of 195 to 197 °C.

With `Cc1cc2c(cc1C(=O)N1CCc3cccnc31)[nH]c(=O)c1nnc(C3CCCOC3)n12` (stereo not drawn), the melting point is 314 °C (dec.).

Consider `Cc1cc2c(cc1C(=O)N1CCc3ccccc3CC1)[nH]c(=O)c1nnc(C3CCOCC3)n12.Cl`, for which the melting point lay within 212 to 215 °C.

As for `O=C(c1ccc2c(c1)[nH]c(=O)c1nnc(C3CCOCC3)n12)N1CCc2c(Cl)cccc2C1`, the melting point is 318 °C (dec.).

Compound `Cc1cc2c(cc1C(=O)N1CCc3sccc3C1)[nH]c(=O)c1nnc(C3CCOCC3)n12.Cl` returned a melting point of 216 to 219 °C.

Consider `Cc1cc2c(cc1C(=O)N1CCc3c(cc(-c4ccccc4)n3C)C1)[nH]c(=O)c1nnc(C3CCOCC3)n12`, for which the melting point lay in the range of 223 to 225 °C.

`CN(C)CCOc1cc2c(cc1C(=O)N1CCc3cc(Cl)ccc31)[nH]c(=O)c1cnc(C3CCOCC3)n12`: the melting point is 219 to 221 °C (dec.).

`CCCc1nnc2c(=O)[nH]c3cc(C(=O)N4CCc5c(Cl)cccc5C4)ccc3n12` registered a melting point of 293 to 295 °C.

Turning to `Cc1cc2c(cc1C(=O)N1CCc3cc(Cl)cnc31)[nH]c(=O)c1cnc(C3CCOCC3)n12.Cl`, the melting point is 297 °C (dec.).

For the compound `Cc1cc2c(cc1C(=O)N1CCc3cc(Br)cnc31)[nH]c(=O)c1nnc(C3CCC(F)(F)CC3)n12`, the melting point is 343 °C (dec.).

Turning to `Cc1cc2c(cc1C(=O)N1CCc3cc(Br)cnc31)[nH]c(=O)c1nnc(C3CCCOC3)n12` (stereo not drawn), the melting point was 218 to 220 °C (dec.).

For the compound `Cc1cc2c(cc1C(=O)N1CCc3cccnc31)[nH]c(=O)c1nnc(C3CCOC3)n12.Cl` (stereo not drawn), the melting point was 210 to 211 °C (dec.).

In the case of `CCCc1nnc2c(=O)[nH]c3cc(C(=O)N4Cc5ccc(F)cc5C4)ccc3n12`, the melting point is 293 °C (dec.).

For `Cc1cc2c(cc1C(=O)N1CCc3cc(Cl)ccc31)[nH]c(=O)c1ncc(C3CCCC3)n12.Cl`, the melting point was 279 °C (dec.).

Turning to `Cc1cc2c(cc1C(=O)N1CCc3cc(Cl)ccc31)[nH]c(=O)c1nnc(CC3CCSCC3)n12.Cl`, the melting point was 215 to 218 °C.

`Cc1cc2c(cc1C(=O)N1CCc3cc(F)ccc31)[nH]c(=O)c1cnc([C@H]3CC[C@@H](O)CC3)n12.Cl` registered a melting point of 200 to 202 °C.

Consider `COc1cc2c(cc1C(=O)N1CCc3cc(Cl)ccc31)[nH]c(=O)c1nnc(C3CCOCC3)n12.Cl`, for which the melting point is 284 °C (dec.).

`Cc1cc2c(cc1C(=O)N1Cc3ccc(F)cc3C1)[nH]c(=O)c1cnc(C3CCOCC3)n12.Cl`: the melting point was 200 to 203 °C.

As to `COCc1cc2c(cc1C(=O)N1Cc3c(F)ccc(F)c3C1)[nH]c(=O)c1cnc(C3CCOCC3)n12.Cl`, the melting point is 172 to 174 °C.

Compound `Cc1cc2c(cc1C(=O)N1CCc3cc(F)ccc31)[nH]c(=O)c1nnc(C3CC(F)(F)C3)n12` showed a melting point of 234 to 235 °C.

Regarding `Cc1cc2c(cc1C(=O)N1CCc3cc(Cl)ccc31)[nH]c(=O)c1nnc(C3CC(F)(F)C3)n12`, the melting point was in the range of 243 to 245 °C.

`Cc1cc2c(cc1C(=O)N1CCc3cc(Cl)ccc31)[nH]c(=O)c1nnc(-c3ccccc3)n12` returned a melting point of 248 to 249 °C.

On to `Cc1cc2c(cc1C(=O)N1CCc3cc(Cl)ccc31)[nH]c(=O)c1nnc([C@H]3CC[C@H](O)CC3)n12.Cl`, for which the melting point lay within 235 to 237 °C.

Regarding `COc1cc2c(cn1)N(C(=O)c1cc3[nH]c(=O)c4nnc(C5CCOCC5)n4c3cc1C)CC2`, the melting point was 271 °C (dec.).

As for `Cc1ccc2c(c1)CCN2C(=O)c1cc2[nH]c(=O)c3c(C)nc(C4CCOCC4)n3c2cc1C.Cl`, the melting point is 264 to 266 °C (dec.).

Consider `Cc1c(C(=O)N2CCc3cc(Cl)ccc32)ccc2c1[nH]c(=O)c1cnc(C3CCOCC3)n12`, for which the melting point is 290 °C (dec.).

For `Cc1cc2c(cc1C(=O)N1CCCc3ccccc3C1)[nH]c(=O)c1cnc(C3CCOCC3)n12.Cl`, the melting point lay within 170 to 172 °C.

`COc1cc2c(cc1C(=O)N1Cc3ccccc3C1)[nH]c(=O)c1cnc(C3CCCCC3)n12.Cl` had a melting point of 299 to 303 °C.

Take `COCc1cc2c(cc1C(=O)N1CCc3cc(F)c(F)cc31)[nH]c(=O)c1nnc(C3(C)CCOCC3)n12.Cl`: the melting point was in the range of 195 to 198 °C.

On to `Cc1cc2c(cc1C(=O)N1CCc3ccc(C(F)(F)F)cc31)[nH]c(=O)c1cnc(C3CCOCC3)n12.Cl`, for which the melting point lay within 276 to 277 °C.

With `Cc1cc2c(cc1C(=O)N1Cc3ccccc3C1)[nH]c(=O)c1nnc([C@H]3CC[C@H](C)CC3)n12`, the melting point lay within 318 to 321 °C.

In the case of `Cc1cc2c(cc1C(=O)N1Cc3cccc(C)c3C1)[nH]c(=O)c1nnc(C3CCOCC3)n12`, the melting point was in the range of 262 to 263 °C.

Regarding `Cc1cc2c(cc1C(=O)N1CCc3c(Cl)cccc3C1)[nH]c(=O)c1cnc(C3CCCC3)n12`, the melting point was in the range of 297 to 299 °C.
